Measurements published in patent US20210045385A1, “PYRIDAZINONE-SUBSTITUTED KETOXIMES AS HERBICIDES” (FMC Corporation, priority 2018, published 2021).

Experiments:
Format in all cases: in vivo
[1] = tested on: Italian ryegrass (Lolium multiflorum); assay: Test A preemergence, visual plant response rating
Procedure, shortened: (§1)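 Formulated in a non-phytotoxic solvent mixture including surfactant, each test chemical was sprayed onto the soil surface after sowing, or onto seedlings 2 to 10 cm high. Roughly 10 days later, plants were compared with untreated controls and rated for injury from 0 (no effect) to 100 (complete control).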

[2] = tested on: barnyardgrass (Echinochloa crus-galli); assay: Test A preemergence, visual plant response rating
Procedure, shortened: as §1

[3] = tested on: foxtail, giant (giant foxtail, Setaria faberii); assay: Test A preemergence, visual plant response rating
Procedure, shortened: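 Ratings 0–100 (100 = complete control), visual, vs untreated controls at ~10 days. Application pre- or postemergence; solvent mixture with surfactant; loam/sand medium.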

[4] = tested on: kochia (Kochia scoparia); assay: Test A preemergence, visual plant response rating
Procedure, shortened: as §1

[5] = tested on: pigweed (Amaranthus retroflexus); assay: Test A preemergence, visual plant response rating
Procedure, shortened: as §1

[6] = tested on: ragweed (common ragweed, Ambrosia elatior); assay: Test A preemergence, visual plant response rating
Procedure, shortened: as §1

[7] = tested on: Italian ryegrass (Lolium multiflorum); assay: Test A postemergence, visual plant response rating
Procedure, shortened: as §1

[8] = tested on: barnyardgrass (Echinochloa crus-galli); assay: Test A postemergence, visual plant response rating
Procedure, shortened: as §1

[9] = tested on: blackgrass (Alopecurus myosuroides); assay: Test A postemergence, visual plant response rating
Procedure, shortened: as §1

[10] = tested on: corn (Zea mays); assay: Test A postemergence, visual plant response rating
Procedure, shortened: as §1

[11] = tested on: foxtail, giant (giant foxtail, Setaria faberii); assay: Test A postemergence, visual plant response rating
Procedure, shortened: as §1

[12] = tested on: galium (catchweed bedstraw, Galium aparine); assay: Test A postemergence, visual plant response rating
Procedure, shortened: as §1

[13] = tested on: kochia (Kochia scoparia); assay: Test A postemergence, visual plant response rating
Procedure, shortened: as §1

[14] = tested on: pigweed (Amaranthus retroflexus); assay: Test A postemergence, visual plant response rating
Procedure, shortened: as §1

[15] = tested on: ragweed (common ragweed, Ambrosia elatior); assay: Test A postemergence, visual plant response rating
Procedure, shortened: as §1

[16] = tested on: wheat (Triticum aestivum); assay: Test A postemergence, visual plant response rating
Procedure, shortened: as §1

[17] = tested on: barnyardgrass (Echinochloa crus-galli); assay: Test B flooded paddy test, visual plant response rating; conditions: 250 g ai/ha, Flood, applied to paddy water, 2-leaf stage, evaluated after 13 to 15 days
Procedure, shortened: (§2)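 Flooded-pot treatment: water 3 cm over the soil, chemical delivered into that water, depth unchanged for the duration. Assessed by eye versus controls following 13–15 greenhouse days; plants were at 2 leaves when dosed.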

[18] = tested on: ducksalad (Heteranhera limosa); assay: as above; conditions: 250 g ai/ha, Flood, applied to paddy water, 2-leaf stage, evaluated after 13 to 15 days
Procedure, shortened: as §2

[19] = tested on: rice (Oryza sativa); assay: as above; conditions: 250 g ai/ha, Flood, applied to paddy water, 2-leaf stage, evaluated after 13 to 15 days
Procedure, shortened: as §2

[20] = tested on: sedge, umbrella (small-flower umbrella sedge, Cyperus difformis); assay: as above; conditions: 250 g ai/ha, Flood, applied to paddy water, 2-leaf stage, evaluated after 13 to 15 days
Procedure, shortened: as §2

[21] = 125 g ai/ha, preemergence, 0 to 100 scale, 0 no effect, 100 complete control
[22] = 500 g ai/ha Preemergence, approx. 10 days
[23] = 500 g ai/ha, postemergence, 0 is no effect, 100 is complete control
[24] = Postemergence, 125 g ai/ha, 0 to 100 scale (0 no effect, 100 complete control)

CON=C(c1c(O)c(C)nn(C)c1=O)c1csc2ccccc12 (single isomer, unassigned) [Compound 45]
0: Ryegrass, Italian plant response rating [1, 21] | Barnyardgrass plant response rating [2, 21] | Barnyardgrass plant response rating (0 to 100 scale) [2, 22] | Foxtail, Giant plant response rating [3, 21] | Foxtail, Giant plant response rating (0 to 100 scale) [3, 22] | Kochia plant response rating [4, 21] | Pigweed plant response rating [5, 21] | Pigweed plant response rating (0 to 100 scale) [5, 22] | Ryegrass, Italian plant response rating [7, 24] | Barnyardgrass plant response rating (0 to 100 scale) [8, 23] | Barnyardgrass plant response rating [8, 24] | Blackgrass plant response rating [9, 24] | Corn plant response rating (0 to 100 scale) [10, 23] | Corn plant response rating [10, 24] | Foxtail, Giant plant response rating (0 to 100 scale) [11, 23] | Foxtail, Giant plant response rating [11, 24] | Kochia plant response rating (0 to 100 scale) [13, 23] | Kochia plant response rating [13, 24] | Pigweed plant response rating [14, 24] | Wheat plant response rating (0 to 100 scale) [16, 23] | Wheat plant response rating [16, 24] | Plant response rating, Barnyardgrass (0 to 100 scale, 0 is no effect, 100 is complete control) [17] | Plant response rating, Ducksalad (0 to 100 scale, 0 is no effect, 100 is complete control) [18] | Plant response rating, Rice (0 to 100 scale, 0 is no effect, 100 is complete control) [19] | Plant response rating, Sedge, Umbrella (0 to 100 scale, 0 is no effect, 100 is complete control) [20]
10: Ryegrass, Italian plant response rating (0 to 100 scale) [1, 22] | Ragweed plant response rating [6, 21] | Pigweed plant response rating (0 to 100 scale) [14, 23]
20: Ryegrass, Italian plant response rating (0 to 100 scale) [7, 23] | Blackgrass plant response rating (0 to 100 scale) [9, 23]
30: Ragweed plant response rating [15, 24]
40: Ragweed plant response rating (0 to 100 scale) [6, 22]
50: Kochia plant response rating (0 to 100 scale) [4, 22] | Galium plant response rating [12, 24]
70: Galium plant response rating (0 to 100 scale) [12, 23] | Ragweed plant response rating (0 to 100 scale) [15, 23]
